SMILES: O=C(N[C@H](Cc1ccccc1)C(=O)O)OCC1c2ccccc2-c2ccccc21
- solubility (mole fraction) (in 2-butanone, 283.15 K): 0.00646
- solubility (mole fraction) (in 2-butanone, 288.15 K): 0.00728
- solubility (mole fraction) (in 2-butanone, 293.15 K): 0.00803
- solubility (mole fraction) (in 2-butanone, 298.15 K): 0.00895
- solubility (mole fraction) (in 2-butanone, 303.15 K): 0.00993
- solubility (mole fraction) (in 2-butanone, 308.15 K): 0.0112
- solubility (mole fraction) (in 2-butanone, 313.15 K): 0.0133
- solubility (mole fraction) (in 2-butanone, 318.15 K): 0.015
- solubility (mole fraction) (in 2-butanone, 323.15 K): 0.017
- solubility (mole fraction) (in acetone, 283.15 K): 0.00728
- solubility (mole fraction) (in acetone, 288.15 K): 0.00759
- solubility (mole fraction) (in acetone, 293.15 K): 0.00837
- solubility (mole fraction) (in acetone, 298.15 K): 0.00931
- solubility (mole fraction) (in acetone, 303.15 K): 0.0109
- solubility (mole fraction) (in acetone, 308.15 K): 0.0128
- solubility (mole fraction) (in acetone, 313.15 K): 0.0146
- solubility (mole fraction) (in acetone, 318.15 K): 0.0164
- solubility (mole fraction) (in acetone, 323.15 K): 0.0193
- solubility (mole fraction) (in acetonitrile, 283.15 K): 0.000619
- solubility (mole fraction) (in acetonitrile, 288.15 K): 0.00066
- solubility (mole fraction) (in acetonitrile, 293.15 K): 0.000723
- solubility (mole fraction) (in acetonitrile, 298.15 K): 0.00084
- solubility (mole fraction) (in acetonitrile, 303.15 K): 0.000952
- solubility (mole fraction) (in acetonitrile, 308.15 K): 0.00117
- solubility (mole fraction) (in acetonitrile, 313.15 K): 0.00138
- solubility (mole fraction) (in acetonitrile, 318.15 K): 0.00168
- solubility (mole fraction) (in acetonitrile, 323.15 K): 0.00203
- solubility (mole fraction) (in ethanol, 283.15 K): 0.00161
- solubility (mole fraction) (in ethanol, 288.15 K): 0.00173
- solubility (mole fraction) (in ethanol, 293.15 K): 0.00187
- solubility (mole fraction) (in ethanol, 298.15 K): 0.00205
- solubility (mole fraction) (in ethanol, 303.15 K): 0.0024
- solubility (mole fraction) (in ethanol, 308.15 K): 0.00278
- solubility (mole fraction) (in ethanol, 313.15 K): 0.00324
- solubility (mole fraction) (in ethanol, 318.15 K): 0.004
- solubility (mole fraction) (in ethanol, 323.15 K): 0.00515
- solubility (mole fraction) (in ethyl acetate, 283.15 K): 0.00272
- solubility (mole fraction) (in ethyl acetate, 288.15 K): 0.003
- solubility (mole fraction) (in ethyl acetate, 293.15 K): 0.00342
- solubility (mole fraction) (in ethyl acetate, 298.15 K): 0.00379
- solubility (mole fraction) (in ethyl acetate, 303.15 K): 0.00443
- solubility (mole fraction) (in ethyl acetate, 308.15 K): 0.00504
- solubility (mole fraction) (in ethyl acetate, 313.15 K): 0.00571
- solubility (mole fraction) (in ethyl acetate, 318.15 K): 0.00682
- solubility (mole fraction) (in ethyl acetate, 323.15 K): 0.00793
- solubility (mole fraction) (in isopropanol, 283.15 K): 0.000943
- solubility (mole fraction) (in isopropanol, 288.15 K): 0.00103
- solubility (mole fraction) (in isopropanol, 293.15 K): 0.00114
- solubility (mole fraction) (in isopropanol, 298.15 K): 0.00126
- solubility (mole fraction) (in isopropanol, 303.15 K): 0.00155
- solubility (mole fraction) (in isopropanol, 308.15 K): 0.00208
- solubility (mole fraction) (in isopropanol, 313.15 K): 0.00263
- solubility (mole fraction) (in isopropanol, 318.15 K): 0.00311
- solubility (mole fraction) (in isopropanol, 323.15 K): 0.00375
- solubility (mole fraction) (in methanol, 283.15 K): 0.00189
- solubility (mole fraction) (in methanol, 288.15 K): 0.00192
- solubility (mole fraction) (in methanol, 293.15 K): 0.00199
- solubility (mole fraction) (in methanol, 298.15 K): 0.00212
- solubility (mole fraction) (in methanol, 303.15 K): 0.00243
- solubility (mole fraction) (in methanol, 308.15 K): 0.00285
- solubility (mole fraction) (in methanol, 313.15 K): 0.00331
- solubility (mole fraction) (in methanol, 318.15 K): 0.0039
- solubility (mole fraction) (in methanol, 323.15 K): 0.00513
- solubility (mole fraction) (in methyl acetate, 283.15 K): 0.00327
- solubility (mole fraction) (in methyl acetate, 288.15 K): 0.00358
- solubility (mole fraction) (in methyl acetate, 293.15 K): 0.00408
- solubility (mole fraction) (in methyl acetate, 298.15 K): 0.00458
- solubility (mole fraction) (in methyl acetate, 303.15 K): 0.00537
- solubility (mole fraction) (in methyl acetate, 308.15 K): 0.00623
- solubility (mole fraction) (in methyl acetate, 313.15 K): 0.0072
- solubility (mole fraction) (in methyl acetate, 318.15 K): 0.00884
- solubility (mole fraction) (in methyl acetate, 323.15 K): 0.0105
- solubility (mole fraction) (in n-butanol, 283.15 K): 0.00121
- solubility (mole fraction) (in n-butanol, 288.15 K): 0.00136
- solubility (mole fraction) (in n-butanol, 293.15 K): 0.00156
- solubility (mole fraction) (in n-butanol, 298.15 K): 0.00181
- solubility (mole fraction) (in n-butanol, 303.15 K): 0.0022
- solubility (mole fraction) (in n-butanol, 308.15 K): 0.00261
- solubility (mole fraction) (in n-butanol, 313.15 K): 0.00322
- solubility (mole fraction) (in n-butanol, 318.15 K): 0.00389
- solubility (mole fraction) (in n-butanol, 323.15 K): 0.00511
- solubility (mole fraction) (in n-butyl acetate, 283.15 K): 0.00209
- solubility (mole fraction) (in n-butyl acetate, 288.15 K): 0.00227
- solubility (mole fraction) (in n-butyl acetate, 293.15 K): 0.00243
- solubility (mole fraction) (in n-butyl acetate, 298.15 K): 0.00278
- solubility (mole fraction) (in n-butyl acetate, 303.15 K): 0.00305
- solubility (mole fraction) (in n-butyl acetate, 308.15 K): 0.00352
- solubility (mole fraction) (in n-butyl acetate, 313.15 K): 0.00409
- solubility (mole fraction) (in n-butyl acetate, 318.15 K): 0.0046
- solubility (mole fraction) (in n-butyl acetate, 323.15 K): 0.00536
- solubility (mole fraction) (in n-propanol, 283.15 K): 0.00161
- solubility (mole fraction) (in n-propanol, 288.15 K): 0.00168
- solubility (mole fraction) (in n-propanol, 293.15 K): 0.00178
- solubility (mole fraction) (in n-propanol, 298.15 K): 0.0019
- solubility (mole fraction) (in n-propanol, 303.15 K): 0.00217
- solubility (mole fraction) (in n-propanol, 308.15 K): 0.00252
- solubility (mole fraction) (in n-propanol, 313.15 K): 0.00316
- solubility (mole fraction) (in n-propanol, 318.15 K): 0.00365
- solubility (mole fraction) (in n-propanol, 323.15 K): 0.00456
- solubility (mole fraction) (in n-propyl acetate, 283.15 K): 0.0023
- solubility (mole fraction) (in n-propyl acetate, 288.15 K): 0.00244
- solubility (mole fraction) (in n-propyl acetate, 293.15 K): 0.00275
- solubility (mole fraction) (in n-propyl acetate, 298.15 K): 0.00318
- solubility (mole fraction) (in n-propyl acetate, 303.15 K): 0.00354
- solubility (mole fraction) (in n-propyl acetate, 308.15 K): 0.00405
- solubility (mole fraction) (in n-propyl acetate, 313.15 K): 0.00467
- solubility (mole fraction) (in n-propyl acetate, 318.15 K): 0.00534
- solubility (mole fraction) (in n-propyl acetate, 323.15 K): 0.00613
